# Assays:
# [1] = system: FoxP3^+/TIM3^+ CD4 T-cells; test: In vitro dose-response analysis in murine T-cells (splenocytes, flow cytometry); format: cell-based, C57BL/6 mice; conditions: for change in FoxP3+/TIM3+ CD4 T-cells with dose: 48 μM to 1.5 μM; for EC50 / EC90: Mus musculus, T-cell, increase in percent FoxP3+/TIM3+ CD4 T-cells, 30:70 drug:DMPC liposomes, 4-parameter model, Emax fixed to 7.9%; for EC50: read-out: EC50 mean (SE); for EC90: read-out: EC90 mean (SE)
# Description: Compound 1 and Compound 2 were each formulated with dimyristoylphosphatidylcholine (DMPC) at a 30:70 drug to lipid molar ratio. Liposomes were synthesized according to Example 2 in PBS.
# Splenocytes from naïve C57BL/6 mice were stained with CFSE, prepared, cultured, and dosed. Cells were seeded at 2×10^5 cells/well. Cells were dosed with each compound from 48 μM to 1.5 μM at a log 2 dilution scheme. Cells were incubated for 72 hours before phenotyping for FoxP3^+/TIM3^+ CD4 T-cells. Flow cytometer analysis was performed to assess changes in percent FoxP3^+/TIM3^+ CD4 T-cells as a function of treatment and dose. Concentration versus response was fitted to a four- or five-parameter log-logistic model (using the “drc” package in “R”). The EC50 and EC90 values were obtained by model fitting.
# [2] = system: MOG35-55-Induced Murine EAE Model; test: MOG35-55-induced murine EAE model, prophylactic and therapeutic treatment; format: in vivo, mice
# Description: Compound 2 was formulated with 1,2-distearoyl-sn-glycero-3-phosphocholine (DSPC) at a molar ratio of 3.75:96.25 Compound 2:DSPC. Two test articles were formulated and tested. The first formulation was made with Compound 2:DSPC with MOG35-55, referred to as Compound 2/MOG35-55. Another formulation was made without […], and is referred to as Compound 2. […] The ratio of Compound 2 to DSPC was chosen based on in vitro dose-response studies. Liposomes were prepared as described in Example 2, in PBS and extruded through a […] filter. Animals were dose with 100 μl of 42 μM Compound 2 or 100 μl of 42 μM/1 μg Compound 2/MOG35-55 per mouse PO QD. This dose was selected based on in vitro dose-response analysis.
# In the active EAE model, mice are immunized with MOG35-55 peptide emulsified in Complete Freund's Adjuvant (CFA) by subcutaneous injection at the tail base (0.1 mL of emulsion/mouse) under anesthesia. On the day of injection (Day 0) and 2 days later, mice receive an intraperitoneal injection of Pertussis Toxin (PT) in PBS at 600 ng/mouse/dose (0.1 mL).
# Symptoms typically develop in mice 9-14 days after immunization (Day 0). Daily observation and scoring of mice start on Day 9 and continue until the end of the study. Table 10 details the expected clinical symptoms and the scoring criteria used in this study.
# Mice were dosed with 100 μl of 42 μM Compound 2 or 100 μl of 42 μM of Compound 2 co-formulated with 1 μg of MOG35-55 (Compound 2/MOG35-55) orally QD for the duration of the study.
# To evaluate the therapeutic effects of Compound 2, treatment was initiated after the first clinical symptoms were observed. […] The treatment arm received 100 μl of 42 μM Compound 2 PO QD for the remainder of the study. Mice in all groups were monitored and scored daily for clinical symptoms. Once a mouse reached a score of five as per Table 11 or was found dead in the cage it was marked as an event in the survival analysis.
# FoxP3^+/CD4^+ T-cells [3] = test: Splenocyte flow cytometry at end of EAE study; format: in vivo, mice
# Description: At the end of the study, spleens were collected from a representative sample of mice from each group for splenocyte analysis. A single-cell suspension was prepared for cellular phenotyping by flow cytometry. Cells were stained and gated for CD4^+T-cells. Percent FoxP3^+/CD4^+ T-cells were evaluated by flow cytometry.
# FoxP3^+/CD4^+ T-cells [4] = test: Pharmacodynamic effects of a single PO dose in mice (splenocyte phenotyping); format: in vivo; conditions: for percentage of FoxP3+/CD4+ T-cells, mean value: single oral gavage, 10:90 Compound 2:DMPC
# Description: Compound 2 was dissolved in DMSO and formulated with 1,2-dimyristoyl-sn-glycero-3-phosphocholine (DMPC) at a molar ratio of 10:90 Compound 2:DMPC, as described in Example 2. Animals were dosed according to Table 7.
# To evaluate the PD effects of a single dose of Compound 2 in mice, the animals were administered a single oral gavage as per their group assignment (Table 7). Five days after the oral dose, the animals were sacrificed and their spleens were collected for T-cell phenotyping. The study included an ex vivo analysis followed by a dose-response analysis (FIG. 4A). The spleens collected for splenocyte analysis were prepared into a single-cell suspension for cellular phenotyping by flow cytometry (eBioscience, Inc., San Diego, CA). Cells were stained and gated for CD4. Percent FoxP3^+/CD4^+ T-cells were evaluated using flow cytometry. A dose versus response curve was fitted to a four- or five-parameter log-logistic model (using the “drc” package in “R”). The EC50 and EC90 values were obtained by model fitting.
# [5] = mouse treated after the onset of symptoms
# [6] = four-parameter dose-response model, percent FoxP3+/CD4+ T-cells, single oral dose
# [7] = four-parameter dose-response model, single oral dose, 100 μl/mouse
structure (smiles),measurement,setting,value
"CCCCCCCCCCCCCCCCOC(=O)NC[C@H](N)C(=O)O [Compound 1, (S)-2-amino-3-(((hexadecyloxy)carbonyl)amino) propanoic acid]",increase in FoxP3+/TIM3+ CD4 T-cells over low dose,[1]; 10 μM,126%
same,change in FoxP3+/TIM3+ CD4 T-cells with dose,[1],dose-dependent increase
same,cell appearance via microscope at end of incubation,"[1]; 48 μM, 72 hours",did not look healthy
same,EC50,[1]; 72 hours,13.4 µM
same,EC90,[1]; 72 hours,15 µM
same,"FoxP3+/TIM3+ double positive CD4 T-cells, mean value","[1]; high dose, 72 hours",8.26%
same,"FoxP3+/TIM3+ double positive CD4 T-cells, mean value","[1]; low dose, 72 hours",3.65%
"CCCCCCCCCCCCCCCCCC(=O)NC[C@H](N)C(=O)O [Compound 2, (S)-2-amino-3-stearamidopropanoic acid]",mean clinical score by end of the study,[2]; prophylactic,2.1
same,"disease onset, day after immunization","[2]; prophylactic, 100 μl of 42 μM PO QD from four days after immunization, control day 9",12 days
same,mean clinical score at peak symptoms,"[2]; prophylactic, day 17, control 4.77",2.6
same,day by which all animals showed symptoms,"[2]; prophylactic, control 11",13 days
same,delay in disease progression after disease onset,"[2]; therapeutic, 100 μl of 42 μM PO QD from clinical score of 1",one-day
same,mean clinical score lower than in the untreated arm,"[2]; therapeutic, by the end of the study",54%
same,mean clinical score at peak symptoms,"[2]; therapeutic, day 6 after the onset of symptoms, control 4.77 on day 7",2.8
same,mean clinical score after the peak,"[2]; therapeutic, day 10 after the onset of symptoms",2.33
same,animals that spontaneously died or were euthanized (survival analysis),[2]; untreated group eight out of nine,zero out of nine
same,increase of Foxp3+/CD4+ T-cells over the surviving mouse in the untreated group,FoxP3^+/CD4^+ T-cells [3]; [5],715%
same,percent Foxp3+/CD4+ T-cell,FoxP3^+/CD4^+ T-cells [3]; [5],26.1%
same,increase of Foxp3+/CD4+ T-cells over control,FoxP3^+/CD4^+ T-cells [3]; prophylactic group,225%
same,percent of Foxp3+/CD4+ T-cells,"FoxP3^+/CD4^+ T-cells [3]; prophylactic group, end of study, control 3.20%",10.4%
same,"E0 (model estimated), Mean",FoxP3^+/CD4^+ T-cells [4]; [6],3.3
same,"Emax (model estimated), Mean",FoxP3^+/CD4^+ T-cells [4]; [6],12.1%
same,ED50,FoxP3^+/CD4^+ T-cells [4]; [7],43.1 µM
same,ED90,FoxP3^+/CD4^+ T-cells [4]; [7],281.0 µM
same,"percentage of FoxP3+/CD4+ T-cells, mean value","FoxP3^+/CD4^+ T-cells [4]; high dose group, 5 days",11.53%
same,"percentage of FoxP3+/CD4+ T-cells, mean value","FoxP3^+/CD4^+ T-cells [4]; low dose group, 5 days",3.87%
same,"increase of FoxP3+/CD4+ T-cells (T-regs), high dose group compared to low dose group","FoxP3^+/CD4^+ T-cells [4]; single oral dose, 5 days",219%
same,increase in FoxP3+/TIM3+ CD4 T-cells over low dose,[1]; 30 μM,129%
same,toxicity in vitro,[1]; 30 µM dose,less toxicity in vitro compared to Compound 1
same,change in FoxP3+/TIM3+ CD4 T-cells with dose,[1],dose-dependent increase
same,EC50,[1]; 72 hours,14.6 µM
same,EC90,[1]; 72 hours,17.8 µM
same,"FoxP3+/TIM3+ double positive CD4 T-cells, mean value","[1]; high dose, 72 hours",7.36%
same,"FoxP3+/TIM3+ double positive CD4 T-cells, mean value","[1]; low dose, 72 hours",3.21%
same,maximum efficacious dose in vitro,[1]; preliminary data,42 µM

# — patent publication US20240351977A1, “Compositions and Methods For Reducing Immune Intolerance and Treating Autoimmune Disorders” (Lapix Therapeutics, Inc., priority 2021, published 2024)
